This experiment has as its system CEM cells HIV-1 protection, formazan growth assay. In words: NCI AIDS Antiviral Assay. Conditions: for IC50: measured here: growth of uninfected CEM cells. A digest of the protocol: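 Category rules: moderately active means at least 50% protection on retest, and confirmed active means 100% protection reproducibly. The underlying data came from a formazan growth assay in HIV-1-infected CEM cells.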

“And” between values parts separate entries of the source, which are not always exact repeats. Equal entries are not always repeated. The source made the active and inactive calls.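 The calls were made as follows: active = compounds giving half or more protection of infected cells from virus-caused growth loss, again on retest; inactive = the rest.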

The term EC50 denotes the concentration at which the effect is half-maximal. For orientation: IC50 means the concentration needed to halve the response being measured. Low values mean greater potency in that assay, high ones weaker potency in that assay.

With `CC1=NNC(=O)C12CC2`, the result was inactive.
For the molecule `S=C1NC2=C(COC/C2=C\c2ccccc2Cl)C(c2ccccc2Cl)N1` (configuration not stated), the outcome was inactive.
`O=C(CCC(NC(=O)OCc1ccccc1)C(=O)OCc1ccccc1)Nc1ccc(OCc2ccccc2)cc1` (configuration not stated): the EC50 is over 200 µM and the IC50 was found to be 126 µM.
Taken in the same sequence, the figures for `COc1nc2c(c(=O)[nH]1)N=C(c1ccccc1)CC(c1ccccc1)N2` (configuration not stated) were over 200 µM and over 200 µM.
For `CCOC(=O)c1nc(-c2ccccc2)c(-c2ccccc2)c(-c2ccccc2)c1C` the same measures were over 5.13 µM and over 5.13 µM.
For `O=C1SC(=NC2CCCCC2)N(C2CCCCC2)/C1=C1\C(=O)SC(=NC2CCCCC2)N1C1CCCCC1` the same measures were over 26.9 µM and over 26.9 µM.
Turning to `O=c1/c(=C/c2ccccc2[N+](=O)[O-])sc2nnc(-c3cccnc3)n12`, the EC50 was over 186 µM and the IC50 was over 186 µM.
As to `CC(C)(C)c1cc(CCCCCCCC2(CCCCCCCc3cc(C(C)(C)C)cc(C(C)(C)C)c3)OC(COCCOCCCCCC#N)C(COCCOCCCCCC#N)O2)cc(C(C)(C)C)c1` (configuration not stated), the result was inactive.
As to `c1ccc2oc(-c3ccc(-c4nc5ccccc5o4)c4c3CC4)nc2c1`, the EC50 was over 50.1 µM and the IC50 was over 50.1 µM.
With `CC(Nc1n[nH]c(=O)c2c1nnn2Cc1ccccc1)c1ccccc1` (configuration not stated), the EC50 is 55 µM and 126 µM; the IC50 is 97.7 µM and 447 µM.
Consider `COc1c(C)c2c(c(=O)c3c(C)cccc3n2C)c2c1c(=O)c1c(C)cccc1n2C`, for which the EC50 is over 200 µM and the IC50 was determined as 155 µM.
For `CC1CCCc2c1c1ccc3c(O)cccc3c1oc2=O` (configuration not stated) the same measures were over 7.08 µM and over 7.08 µM.
Taken in the same sequence, the figures for `CC(C)(Sc1cc(C(C)(C)C)c(O)c(C(C)(C)C)c1)Sc1cc(C(C)(C)C)c(O)c(C(C)(C)C)c1` were over 26.3 µM and over 26.3 µM.
Taken in the same sequence, the figures for `CCOC(CN(C)C(=O)OCC(Cl)(Cl)Cl)OCC` were over 22.4 µM and over 22.4 µM.
`CN(C)CCc1c2c(nc3ccccc13)C(=O)c1cccnc1C2=O`: the outcome was inactive.
Take `CCOC(=O)C1(c2ccccc2)CCNC(=O)CC1` (configuration not stated): the EC50 is over 955 µM and the IC50 is over 955 µM.
With `N/C(=N\N=C\C1CC2C=CC1C2)NO` (configuration not stated), the outcome was inactive.
With `CCN(CC)CCN1C(=O)CN=C(c2ccccn2)c2cc(Cl)ccc21`, the EC50 was over 447 µM and the IC50 came to 240 µM.
For the molecule `Cc1nnc2c3nnc(C)n3c3ccccc3n12`, the result was inactive.
Turning to `COc1ccc(OC)c2c(C(=O)O)c(C(C)c3ccccc3)ccc12` (configuration not stated), the outcome was inactive.
On to `CC(=O)OCCn1c(Cc2ccc(C)cc2)nn(C(C)=O)c1=O`, for which the EC50 is over 200 µM and the IC50 is over 200 µM.
On to `Cc1cc(C)c(C2=NOC(c3ccccc3)(c3cc(=O)n(-c4ccccc4)s3)O2)c(C)c1` (configuration not stated), for which the EC50 was 8.51 µM and the IC50 was determined as 38 µM.
Take `COc1ccccc1NC(=O)CC(=O)n1nc(C)c(N=Nc2ccccc2Cl)c1C`: the result was inactive.
On to `CCN(CC)C(=O)C(C)=O`, for which the EC50 was over 1740 µM and the IC50 is over 1740 µM.
For the molecule `COC(=O)C(Cc1ccccc1)NC(=O)Cn1ccnc1[N+](=O)[O-]` (configuration not stated), the EC50 was over 759 µM and the IC50 stood at 132 µM.
Taken in the same sequence, the figures for `O=C1NC(=O)C(CCN2CCCCC2)(c2ccccc2)C(=O)N1` were over 200 µM and over 200 µM.
For `C[N+]1(CCCCN2c3ccccc3Sc3cc(N=[N+]=[N-])ccc32)CCN(C(=O)CCNC(=O)Cc2ccc(C(=O)c3ccccc3)cc2)CC1` the same measures were over 100 µM and 15.5 µM.
For `CCN(CC)C(C)C(=O)Nc1cccc(Cl)c1C` (configuration not stated) the same measures were over 50.1 µM and over 50.1 µM.
Turning to `O=C1c2ccccc2C(=O)N1OCCCCON1C(=O)c2ccccc2C1=O`, the EC50 was over 200 µM and the IC50 is over 200 µM.
On to `CC(C)(CO)NC(=O)c1cccc(C(=O)NC(C)(C)CO)c1Br`, for which the EC50 was over 200 µM and the IC50 is over 200 µM.

Values taken from PubChem BioAssay AID179 (DTP/NCI, 2004).
